Data as given in PubChem BioAssay (NCI).
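96-well plates; 48 h exposure; 5 concentrations. Endpoints by linear interpolation between flanking doses. Not reached: highest tested concentration assigned. At the GI50, growth is halved. TGI is the concentration that stops growth completely.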

Columns and labels:
Assay in all cases: NCI-60 cell line screen, 48 h
ACHN renal = test system: ACHN renal
OVCAR-4 ovarian = test system: OVCAR-4 ovarian
MCF7 breast = test system: MCF7 breast
SF-295 CNS = test system: SF-295 CNS
U251 CNS = test system: U251 CNS
PC-3 prostate = test system: PC-3 prostate
HT29 colon = test system: HT29 colon
DU-145 prostate = test system: DU-145 prostate
KM12 colon = test system: KM12 colon
RPMI-8226 leukemia = test system: RPMI-8226 leukemia

Row | Compound | GI50 (ACHN renal) [µM] | TGI (ACHN renal) [µM] | GI50 (OVCAR-4 ovarian) [µM] | TGI (OVCAR-4 ovarian) [µM] | GI50 (MCF7 breast) [µM] | TGI (MCF7 breast) [µM] | GI50 (SF-295 CNS) [µM] | TGI (SF-295 CNS) [µM] | GI50 (U251 CNS) [µM] | TGI (U251 CNS) [µM] | GI50 (PC-3 prostate) [µM] | TGI (PC-3 prostate) [µM] | GI50 (HT29 colon) [µM] | TGI (HT29 colon) [µM] | GI50 (DU-145 prostate) [µM] | TGI (DU-145 prostate) [µM] | GI50 (KM12 colon) [µM] | TGI (KM12 colon) [µM] | GI50 (RPMI-8226 leukemia) [µM] | TGI (RPMI-8226 leukemia) [µM]
1 | Nc1cc(Br)c(-c2nnc(CCC(=O)c3nc4ccccc4[nH]3)o2)c(Br)c1 | 48 | > 100 | 5.49 | 78.3 | 3.06 | > 100 | 9.78 | 35.6 | 3.5 | > 100 | 2.9 | > 100 | 19.2 | 83.5 | 5.4 | 53.5 | 3.71 | 18 | 4.21 | > 100
2 | COc1cc2c(Nc3cc(Cl)c(OC)c(Cl)c3)c(C#N)cnc2cc1OCCCN1CCN(C)CC1 | 0.239 | 3.58 | 1.9 | 11.3 | 2.58 | 12.6 | 2.49 | 7.45 | 1.92 | 4.05 | 7.06 | 20.6 | 0.927 | 3.25 | 1.28 | 13 | 2.19 | 10.1 | 1.47 | 4.79
3 | COc1ccc(-c2nccn2-c2ccc(OC)cc2)cc1 | 5.64 | > 57.4 | 30.2 | > 100 | 24.4 | > 66.1 | 21 | 74.2 | 26.3 | > 72.9 | 24.9 | > 100 | 13 | 32.9 | 33.3 | > 93.8 | 17.9 | 65.3 | 13.4 | 36.6
4 | CCCc1cc(=O)n2c(C(=O)Nc3ccc(Cl)cc3C)c(C(=O)Nc3ccc(F)cc3)sc2n1 | 3.8 | 13.4 | 2.57 | 6.25 | 4.67 | 33.9 | 31.7 | 131 | 1.51 | 4.37 | 2.07 | 11 | 12.2 | > 150 | 9.37 | 33.3 | 13.5 | > 150 | 2.7 | 6.88
5 | CCN(CC)CCCCCCNc1cccc2cc(Br)cnc12 | 4.98 | 17.1 | 5.05 | 18.9 | 3.02 | 11.2 | 2.88 | 10 | 5.36 | 17.7 | 3.6 | 17 | 1.88 | 4.32 | 12.7 | 26.4 | 3.56 | 14.3 | 3.81 | 15.5
6 | CCCC(=O)C1=C(O)C(Cc2c(O)c(C)c(O)c(C(=O)CCC)c2O)=C(O)C(C)(C)C1=O |  | > 50 |  | > 50 |  | > 50 |  | > 50 |  | > 50 |  | > 50 |  | > 50 |  | > 50 |  | > 50 |  | > 50
7 | O=C(O)c1cccc(COc2ccc([N+](=O)[O-])cc2Cl)c1 | > 100 | > 100 | > 100 | > 100 | > 100 | > 100 | > 100 | > 100 | > 100 | > 100 | > 100 | > 100 |  |  | > 100 | > 100 | > 100 | > 100 | > 100 | > 100
8 | O=C1c2ccccc2-c2c1c1ccccc1c(=O)n2CCN1CCNCC1 | 0.316 | 1.3 | 10.4 | 33 | 0.836 | 17.5 | 0.552 | 3.05 | 1.08 | 3.66 | 4.02 | 17.8 | 1.58 | 8.02 | 3.11 | 8.79 | 1.24 | 3.47 | 1.63 | 4.43
9 | Cc1ccc(OCCOCCOCCOCCOc2ccc(C)n(O)c2=S)c(=S)n1O | < 0.0147 | > 100 | < 0.0105 | 55 | < 0.01 | 43.6 | 0.0261 | > 100 | 0.0632 | > 100 | 0.0155 | > 100 | < 0.01 | > 100 | 0.184 | > 100 | 0.0818 | > 100 | 0.0267 | > 64
10 | COc1ccc(/C(C)=C(\c2ccc(OCCN3CCCCCC3)cc2)c2ccc(OC(=O)C3CCCCC3)cc2)cc1 | 1.73 | 3.56 | 0.785 | 3.35 | 0.015 | 2.88 | 0.484 | 1.8 | 1.01 | 3.62 | 0.541 | 2.38 | 0.46 | 2.14 | 1.91 | 4.54 | 0.854 | 3.27 | 0.55 | 2.23
11 | C#CCOc1cccc(Nc2ncnc3c(NC(=O)C=C)cccc23)c1 | 17.8 | 63.4 | 37.8 | > 100 | 21.2 | > 100 | 27.4 | > 100 | 30.4 | > 100 | 15.9 | 67.1 | 19.3 | 98.8 | 18.1 | > 100 | 20.3 | > 100 | 8.46 | 47.2
12 | COc1ccc(-c2nc(-c3cc(OC)cc(OC)c3)[nH]c2-c2ccc(OC)cc2)cc1 | 5.56 | > 100 | 4.03 | > 100 | 3.77 | > 100 | 5.51 | > 100 |  |  | 4 | > 100 | 4.97 | > 100 | 65.5 | > 100 | 6.2 | > 100 | 2.49 | 6.96
13 | ClC(Cl)=C1C(=C(Cl)Cl)C(Cl)(Cl)C1(Cl)Cl |  | 8.81 |  | 16 |  | 19.2 |  | 7.24 |  | 13.9 |  | 5.08 |  | 7.85 |  | 23.4 |  | 18.4 |  | 3.69
